The values that follow are results of earlier work, collected in patent publication US7666823B2, “Lens care solutions” (Novartis AG, priority 2005, dated 2010).

For the data set the following is noted: dissociation constant of the dibasic compound, aqueous.

As for `OCC(CO)(CO)NCCCNC(CO)(CO)CO` [bis-TRIS-propane, 1,3-bis(tris[hydroxymethyl]methylamino)propane], the pKa1 is listed as 6.8 and the pKa2 is given as 9.5.
